This passage reports proton leak results from patent publication US10596193B2, “Copper (I) complexes with glycine, pyruvate, and succinate” (C LAB PHARMA INTERNATIONAL, S.A., priority 2013, dated 2020).

The assay deals with lymphoblasts from autistic donors with mitochondrial dysfunction (A). Particulars: 500 μM copper (I) glycinate, measured by oxygen consumption rate, vs cells without the copper (I) complex, FIG. 17 panel B.

Molecules are shown by their SMILES.

Method: ATP-linked respiration, proton leak, maximal respiratory capacity, and reserve capacity were determined as measured by the cells' oxygen consumption rate.

As for `NCC(=O)[O-].[Cu+]` [copper (I) glycinate], the proton leak entry is recorded as “significantly reduced proton leak”.
